As a reminder, the Kd is the free concentration of one partner at which half of the binding sites on the other are occupied at equilibrium, for simple one-to-one binding.

Like-named read-outs stand apart in the source and are kept apart here.

For assay [1], the target named is T1, BCL6^BTB (Homo sapiens, UniProt P41182+Q09472, C67R/C84N/C8Q).
T1 construct: human BCL6 (residues 5–129; Uniprot: P41182); Trx (N, cleaved yes); 6xHis (N, cleaved yes); made in house; host or cells: bacteria (pET-48b(+) vector)
Nature of the assay: Isothermal calorimetry, BCL6BTB titrations. In kind it is binding. The following applies: ITC; for Kd: 25 °C. The procedure: (§1) 12 hours prior to performing ITC, frozen stocks of 6xHis-p300^BD and BCL6^BTB were dialyzed for two hours in ITC buffer at 4°C (50 mM HEPES pH 7.4, 100 μM TCEP, 150 mM NaCl), followed by dialysis in fresh ITC buffer overnight at 4°C to remove glycerol and equalize protein mixtures. Samples were centrifuged at 10,000g for 10 min to remove any precipitate. In all titrations, DMSO was added to protein mixtures to match the DMSO concentration of ligand dissolved in ITC buffer. For binary assays with TCIP3, dialyzed 6xHis-p300^BD or BCL6^BTB were titrated from the syringe into a cell containing TCIP3 dissolved in ITC buffer. For p300 titrations, 50 μM or 25 μM protein was titrated into 5 μM or 2.5 μM, respectively, of TCIP3. For BCL6 titrations, 70 μM or 40 μM protein was titrated into 7 μM or 5 μM, respectively, of TCIP3. For ternary titrations, 20× 6xHis-p300^BD was incubated with 1x TCIP3 in the cell to drive saturation of the binary complex, followed by a titration of 10x BCL6^BTB from the syringe, at 310 rpm stirring at 25°C. The following concentrations were used in each run: 15 μM BCL6^BTB, 30 μM p300, and 1.5 μM TCIP3; 18 μM BCL6 ^BTB, 36 μM 6xHis-p300^BD, and 1.8 μM TCIP3; or 10 μM BCL6 ^BTB, 20 μM 6xHis-p300^BD, and 1 μM TCIP3. Alternatively, 20x BCL6^BTB was incubated with 1x TCIP3 in the cell to drive saturation of the binary complex, followed by a titration of 10× 6xHis-p300^BD from the syringe, at 310 rpm stirring at 25°C. The following concentrations were used in each run: 30 μM BCL6, 15 μM 6xHis-p300^BD, and 1.5 μM TCIP3; 20 μM BCL6 ^BTB, 10 μM 6xHis-p300^BD, and 1 μM TCIP3; or 40 μM BCL6 ^BTB, 20 μM 6xHis-p300^BD, and 2 μM TCIP3. The first one or two injections and outliers from instrument noise were routinely excluded. Data were fit to a one-site model using MicroCal LLC Origin software. The following injection parameters were used for each run: (Total injection number: 35; Cell temp: 25 °C; Ref power: 10; Initial delay: 250 s; stirring speed: 310; Feedback mode: High; volume: 8 μL; Duration: 13.7 s; Filter period: 2; initial injection volume: 2 μL).
A general note: In ITC the heat of successive injections is recorded.

Assay [2] deals with T2, p300^BD (Homo sapiens, UniProt Q09472).
T2 sequence (Q09472 1049-1156 limits assumed): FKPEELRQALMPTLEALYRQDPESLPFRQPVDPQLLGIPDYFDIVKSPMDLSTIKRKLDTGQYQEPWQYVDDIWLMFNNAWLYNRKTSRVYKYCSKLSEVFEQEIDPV
Nature of the assay: Isothermal calorimetry, p300BD titrations. Format: binding. To be noted: ITC; for Kd: 25 °C. The procedure: as §1

As for `CNC(=O)COc1cc2cc(Nc3nc(N4CCC(C(=O)N5CCN(CCC(=O)N6CCC(n7nc(N8CCCc9cc(-c%10cnn(C)c%10)c(C(F)F)cc98)c8c7CCN(C(=O)NC)C8)CC6)CC5)CC4)ncc3Cl)cc(OC)c2n(C)c1=O` [TCIP3], the Kd in assay [1] (BCL6BTB titrated into TCIP3, read-out: Kd, binary BCL6:TCIP3) worked out at 265 nM; in assay [1] (BCL6BTB titrated into p300BD-saturated TCIP3, read-out: Kd, BCL6 into p300:TCIP3 (ternary)), 19.8 nM; in assay [2] (p300BD titrated into BCL6BTB-saturated TCIP3, read-out: Kd, p300 into BCL6:TCIP3 (ternary)), 2.37 nM; in assay [2] (p300BD titrated into TCIP3, read-out: Kd, binary p300:TCIP3), 8.28 nM. The “α BCL6 into p300:TCIP3” value in assay [1] (α = Kd binary/Kd ternary) came out at 13. The “α p300 into BCL6:TCIP3” value in assay [2] (α = Kd binary/Kd ternary) amounted to 3.5.

(Values after doi:10.1101/2025.03.14.643404, “A Bivalent Molecular Glue Linking Lysine Acetyltransferases to Oncogene-induced Cell Death” (bioRxiv, 2025).)
